Assay [1] has as its target T1, Btk (Homo sapiens, UniProt Q06187). Briefly: Kinase enzymology assay (HTRF KinEase). It is filed as biochemical. Further details: purchased Carna Biosciences. The conditions noted are these: enzymatic assay; values marked * are a single run of duplicates, all others are means of two individual measurements. The protocol: Kinases were purchased from Carna Biosciences. Kinase enzymology assays were performed according to the protocols specified for the HTRF® KinEase™ assays sold by Cisbio Bioassays.
Target sequence in this assay (Q06187 whole entry): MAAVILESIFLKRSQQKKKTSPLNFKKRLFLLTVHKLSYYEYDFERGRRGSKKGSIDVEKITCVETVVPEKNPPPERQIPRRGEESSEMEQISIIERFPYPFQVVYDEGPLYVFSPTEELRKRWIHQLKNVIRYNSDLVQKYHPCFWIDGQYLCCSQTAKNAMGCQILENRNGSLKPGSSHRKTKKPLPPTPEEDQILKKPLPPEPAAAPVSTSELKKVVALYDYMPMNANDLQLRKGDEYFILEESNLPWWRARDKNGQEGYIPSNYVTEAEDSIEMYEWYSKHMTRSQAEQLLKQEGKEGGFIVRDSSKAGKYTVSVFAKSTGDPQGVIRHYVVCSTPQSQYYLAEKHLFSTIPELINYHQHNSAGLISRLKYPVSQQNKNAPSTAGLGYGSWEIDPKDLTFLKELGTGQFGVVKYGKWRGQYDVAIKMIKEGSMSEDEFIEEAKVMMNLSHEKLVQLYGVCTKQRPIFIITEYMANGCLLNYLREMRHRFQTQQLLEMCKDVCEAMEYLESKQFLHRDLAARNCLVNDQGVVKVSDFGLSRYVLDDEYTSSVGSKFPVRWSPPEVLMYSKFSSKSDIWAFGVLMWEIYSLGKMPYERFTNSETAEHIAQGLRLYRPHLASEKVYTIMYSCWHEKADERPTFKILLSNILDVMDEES
A general note: TR-FRET usually uses a lanthanide donor and a delayed reading to cut background.

Assay [2] concerns the target T1, Btk. Briefly: Competition assay: blocking of probe 14 labeling of Btk in cells. It is filed as cell-based. The note with it: inhibitor 1 μM for 1 hour, then 0.5 μM probe 14 for 2 hours, OCI-Ly7 cells. The protocol: Competition assay. LY7 cells were preincubated with the compounds (1 μM) for 1 h before labeling with probe 14 under the proper time and concentration conditions. Then, the cells were lysed and analyzed as described above. Supplementary figure S1: competition experiment in OCI-Ly7 cells (a) and Jurkat cells (b). 1.5×10^6 cells were pre-incubated with compounds for 1h at 1μM before labeling with probe 14 for 2h at 0.5μM. Then, lysed, quantified and analyzed by SDS/PAGE and fluorescent gel scanning (fluorescence, CY2).
Target sequence in this assay (Q06187 whole entry): as above

In assay [3] the target is T1, Btk. The experiment in a line: Kinetic study of Btk inhibitors (kinact/Ki, HTRF KinEase). The assay is classed as biochemical. Further details: purchased Carna Biosciences. The conditions noted are these: 0.5 nM Btk, room temperature, preincubation 0-20 min. How it is done:
The kinase assays were performed at room temperature. The compounds with serial dilution in DMSO were added into reaction buffer with 0.5 nM Btk, incubating with different periods of time (0 min, 4 min, 8 min, 12 min, 16 min, and 20 min). Enzyme reaction was started by adding ATP and substrate to the reaction mixture. The enzyme activity was measured with HTRF® KinEase™ assays. The data analysis was guided by the book, Enzyme Kinetics by Hans Bisswanger[16].
Target sequence in this assay (Q06187 whole entry): as above

Assay [4] addresses T1, Btk. Briefly: Recombinant protein labeling assay. The assay is classed as binding. The note with it: recombinant Btk (0.5 μg). The text has this:
[…] The gel was then blotted, and the total Btk levels were detected by standard […]. The concentration course labeling procedure was similar to that for the time course labeling.
Target sequence in this assay (Q06187 whole entry, species assumed): as the sequence (Q06187 whole entry) above

Assay [5] addresses T1, Btk. The experiment in a line: Cellular labeling of Btk by probe 14 in OCI-Ly7 cells. The assay is classed as cell-based. How it is done: Labeling of Btk by probe 14. A total of 1.5 × 10^6 cells were treated with probe 14 at 1 μM for different lengths of times (5 min, 10 min, 20 min, 30 min, 1 h, 2 h, 3 h, or 4 h), washed, lysed in cell lysis buffer (Beyotime) containing 1 mM PMSF and 10 mM NaF (Invitrogen), and centrifuged. The sample protein concentrations were quantified using a NanoDrop 2000 spectrophotometer, and the samples were adjusted to the same concentration then analyzed by SDS/PAGE and fluorescent gel scanning (fluorescence, CY2). The gel was then blotted, and the total Btk levels were detected by a standard Western blot. The concentration course labeling procedure was similar to that for the time course labeling.
Target sequence in this assay (Q06187 whole entry): as above

The test system of a further assay is Jurkat cells. Briefly: Cellular labeling by probe 14 in Jurkat cells (T-cell line that does not express Btk). It is filed as cell-based. The conditions noted are these: T-cell line without Btk (Supplementary Figure S1). The protocol: Supplementary figure S1: competition experiment in OCI-Ly7 cells (a) and Jurkat cells (b). 1.5×10^6 cells were pre-incubated with compounds for 1h at 1μM before labeling with probe 14 for 2h at 0.5μM. Then, lysed, quantified and analyzed by SDS/PAGE and fluorescent gel scanning (fluorescence, CY2).

As a reminder, the IC50 is the concentration that inhibits the measured activity by half. A low value points to higher potency. The term kinact/KI denotes the second-order rate constant of inactivation.

SMILES strings stand for the structures. Values joined by “and” are separate entries in the source; they are usually repeats but may differ in a detail not shown here. Identical values can stand only once. “Also recorded” adds a separate entry of the source. Counter-ions that a name gives are not always drawn.

`C=CC(=O)NCC(=O)Nc1cccc(Nc2ncc(Nc3cc(NC(=O)c4cccc(C(F)(F)F)c4)ccc3C)cn2)c1` [Compound 1]: the IC50 against Btk [1] was found to be 16.7 nM.

Regarding `C=CC(=O)Nc1cccc(Nc2ncc(NC(=O)c3cc(NC(=O)c4cccc(C(F)(F)F)c4)ccc3C)cn2)c1` [Compound 2], the “Blocking of the labeling of Btk by probe 14” value on Btk [2] is listed as “effectively blocked; also recorded: completely competed off”.

The molecule `C=CC(=O)NCCC(=O)Nc1cccc(Nc2ncc(NC(=O)c3cc(NC(=O)c4cccc(C(F)(F)F)c4)ccc3C)cn2)c1` [Compound 3] had an IC50 against Btk [1] of 26.7 ± 5.74 nM.

As for `C=CC(=O)N1CCC[C@H]1C(=O)Nc1cccc(Nc2ncc(NC(=O)c3cc(NC(=O)c4cccc(C(F)(F)F)c4)ccc3C)cn2)c1` [Compound 4], the IC50 on Btk [1] came out at 52.9 ± 0.95 nM.

Regarding `C=CC(=O)N[C@@H](C)C(=O)Nc1cccc(Nc2ncc(NC(=O)c3cc(NC(=O)c4cccc(C(F)(F)F)c4)ccc3C)cn2)c1` [Compound 5], at Btk [1], 44 ± 8.13 nM corresponded to half-maximal inhibition (IC50).

On to `C=CC(=O)N[C@@H](CC(C)C)C(=O)Nc1cccc(Nc2ncc(NC(=O)c3cc(NC(=O)c4cccc(C(F)(F)F)c4)ccc3C)cn2)c1` [Compound 6, (S)-N-(2-((3-(2-acrylamido-4-methylpentanamido)phenyl)amino)pyrimidin-5-yl)-2-methyl-5-(3-(trifluoromethyl)benzamido)benzamide], for which, on Btk [1], the IC50 is > 100 nM and 114 nM.

As for `C=CC(=O)N[C@@H](Cc1ccccc1)C(=O)Nc1cccc(Nc2ncc(NC(=O)c3cc(NC(=O)c4cccc(C(F)(F)F)c4)ccc3C)cn2)c1` [Compound 7], the IC50 against Btk [1] was > 100 nM and 140 nM.

Turning to `C=CC(=O)N[C@@H](CO)C(=O)Nc1cccc(Nc2ncc(NC(=O)c3cc(NC(=O)c4cccc(C(F)(F)F)c4)ccc3C)cn2)c1` [Compound 8], the midpoint of inhibition at Btk [1], the IC50, lay at 27.4 ± 2.6 nM.

In the case of `C=CC(=O)N[C@@H](CC(N)=O)C(=O)Nc1cccc(Nc2ncc(NC(=O)c3cc(NC(=O)c4cccc(C(F)(F)F)c4)ccc3C)cn2)c1` [Compound 9], at Btk [1], the half-maximal inhibitory concentration (IC50) is 15 to 20 nM and 19.8 nM.

For the molecule `C=CC(=O)N[C@@H](CCC(=O)O)C(=O)Nc1cccc(Nc2ncc(NC(=O)c3cc(NC(=O)c4cccc(C(F)(F)F)c4)ccc3C)cn2)c1` [Compound 10], the IC50 against Btk [1] is 15 to 20 nM and 14.7 nM.

Consider `C=CC(=O)N[C@@H](CCCCN)C(=O)Nc1cccc(Nc2ncc(NC(=O)c3cc(NC(=O)c4cccc(C(F)(F)F)c4)ccc3C)cn2)c1` [Compound 11, Trifluoroacetate of (S)-N-(2-((3-(2-acrylamido-6-aminohexanamido)phenyl)amino)pyramidin-5-yl)-2-methyl-5-(3-(trifluoromethyl)benzamido)benzamide], for which the IC50 at Btk [1] is 63 nM and 62.8 nM. For the same molecule, the kinact/KI on Btk [3] turned out to be 135000 ± 4e+08 M⁻¹ s⁻¹.

With `C=CC(=O)N[C@@H](Cc1cnc[nH]1)C(=O)Nc1cccc(Nc2ncc(NC(=O)c3cc(NC(=O)c4cccc(C(F)(F)F)c4)ccc3C)cn2)c1` [Compound 12], half-maximal inhibition at Btk [1] (IC50) required 64.2 ± 4.95 nM.

For `C#CCCC(=O)NCCCC[C@H](NC(=O)C=C)C(=O)Nc1cccc(Nc2ncc(NC(=O)c3cc(NC(=O)c4cccc(C(F)(F)F)c4)ccc3C)cn2)c1` [Compound 13], the IC50 against Btk [1] was 38 nM and 37.5 nM. Moreover, on Btk [3], the kinact/KI is 75000 ± 8e+08 M⁻¹ s⁻¹.

`C=CC(=O)N[C@@H](CCCCNC(=O)CCC1=[N+]2C(=Cc3c(C)cc(C)n3[B-]2(F)F)C=C1)C(=O)Nc1cccc(Nc2ncc(NC(=O)c3cc(NC(=O)c4cccc(C(F)(F)F)c4)ccc3C)cn2)c1` [Compound 14, (S)-3-(3-((5-acrylamido-6-((3-((5-(2-methyl-5-(3-(trifluoromethyl)benzamido)benzamido)pyrimidin-2-yl)amino)phenyl)amino)-6-oxohexyl)amino)-3-oxopropyl)-5,5-difluoro-7,9-dimethyl-5H-dipyrrolo[1,2-c:2',1'-f][1,3,2]diazaborinin-4-ium-5-uide]: the “Incubation time at which fluorescent signals reached a maximum” value at Btk [4] turned out to be 2 h. The “Saturation rate of labeling compared with PCI-33380” value on Btk [5] (OCI-Ly7 cells (Supplementary Figure S2)) is listed as “slower saturation rate”. Besides, on Btk [5] (OCI-Ly7 cells, concentration course), the “Probe concentration at which Btk band intensity reached saturation” value was found to be 0.5 µM. For the same molecule, at Btk [5] (OCI-Ly7 cells, time course), the “Incubation time sufficient for labeling” value amounted to 2 h. For the same molecule, in the assay with Jurkat cells, the “Labeling in Jurkat cells” value is given as “no significant labeling”.

Source of the values: publication PMC4648318, “A novel 2,5-diaminopyrimidine-based affinity probe for Bruton’s tyrosine kinase” (Scientific Reports, 2015).
